Experimental data from US9428504B2, “7-hydroxy-spiropipiperidine indolinyl antagonists of P2Y1 receptor” (BRISTOL-MYERS SQUIBB COMPANY, priority 2012, dated 2016).
Read-outs that look alike come from different tables or passages of the source.

Experiments:
[1] = molecular target: cloned human P2Y1 receptors (Homo sapiens (Human), UniProt P47900); experiment: Binding Assay B: Scintillation Proximity Assay (SPA) for P2Y1 binding; settings: SPA, [33P] 2MeS-ADP displacement; read-out: P2Y1 Ki (nM) using binding assay B
Description: A SPA membrane binding assay was used to identify inhibitors of [^33P] […] Binding reactions were performed in 384-well OptiPlates (PerkinElmer Life Sciences, Cat #6007299) in a volume of 50 μL containing ˜15 fmol of P2Y1 receptor (1.7 μg of total protein), 0.3 nM [^33P] […] Reactions were allowed to proceed to completion at room temperature for 1 hour followed by centrifugation of the plate for 5 min. About 40 μL of the aqueous solution was aspirated. Plates were sealed and the [^33P]

[2] = system: human platelet rich plasma (PRP); experiment: ADP induced platelet aggregation assay
[3] = Homo sapiens, Platelet, read-out: PA IC50 (μM) @ 10 μM ADP, platelet aggregation induced by 10 μM ADP, human PRP

cloned human P2Y1 receptors, sequence (P47900 whole entry): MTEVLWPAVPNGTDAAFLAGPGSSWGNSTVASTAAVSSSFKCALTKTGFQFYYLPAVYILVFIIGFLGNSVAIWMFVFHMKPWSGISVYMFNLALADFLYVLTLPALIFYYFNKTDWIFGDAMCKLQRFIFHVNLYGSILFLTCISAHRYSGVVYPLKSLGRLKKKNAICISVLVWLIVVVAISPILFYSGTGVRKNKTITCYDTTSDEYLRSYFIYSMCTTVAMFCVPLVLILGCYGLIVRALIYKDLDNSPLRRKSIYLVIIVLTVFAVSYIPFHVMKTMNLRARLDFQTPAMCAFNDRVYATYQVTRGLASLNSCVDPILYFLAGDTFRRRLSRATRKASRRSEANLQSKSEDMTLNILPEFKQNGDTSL

| Structure (SMILES) | Ki [1] [nM] | IC50 [2, 3] [µM] | IC50 ([2]; read-out: PA IC50 (μM) @ 10 μM ADP, platelet aggregation induced by 10 μM ADP, human PRP) [µM] |
| --- | --- | --- | --- |
| CC(C)(C)CN1CCC2(CC1)CN(c1ccccc1NC(=O)Nc1ccc(OC(F)(F)F)cc1)c1c2ccc(F)c1O [Example 14, 1-(2-(6-Fluoro-7-hydroxy-1′-neopentylspiro[indoline-3,4′-piperidine]-1-yl)phenyl)-3-(4-(trifluoromethoxy)phenyl)urea] | 12.8 | 2.1 |  |
| CC(C)(C)CN1CCC2(CC1)CN(c1ccccc1NC(=O)Nc1nc3ccc(F)nc3s1)c1c(O)cc(F)c(Cl)c12 [Example 102, 1-(2-(4-Chloro-5-fluoro-7-hydroxy-1′-neopentylspiro [indoline-3,4′-piperidin]-1-yl)phenyl)-3-(5-fluorothiazolo [5,4-b]pyridin-2-yl)urea] | 12.6 | 0.6 |  |
| CC(C)(C)CN1CCC2(CC1)CN(c1ccccc1NC(=O)Nc1ccc(OC(F)(F)F)cc1)c1c(O)cc(F)cc12 [Example 76, 1-(2-(5-Fluoro-7-hydroxy-1′-neopentylspiro[indoline-3,4′-piperidine]-1-yl)phenyl)-3-(4-(trifluoromethoxy)phenyl)urea] |  | 0.7 |  |
| CC(C)(C)CN1CCC2(CC1)CN(c1ccccc1NC(=O)Nc1nc3ccc(F)cc3s1)c1c(O)ccc(-c3nc4ccc(Cl)cc4s3)c12 [Example 139, 1-(2-(4-(6-Chlorobenzo[d]thiazol-2-yl)-7-hydroxy-1′-neopentylspiro[indoline-3,4′-piperidin]-1-yl)phenyl)-3-(6-fluorobenzo[d]thiazol-2-yl)urea] |  | 0.4 |  |
| CC(C)(C)CN1CCC2(CC1)CN(c1ccc(F)cc1NC(=O)Nc1nc3ccc(F)cc3s1)c1c(O)ccc(Cl)c12 [Example 68, 1-(2-(4-Chloro-7-hydroxy-1′-neopentylspiro[indoline-3,4′-piperidine]-1-yl)-5-fluorophenyl)-3-(6-fluorobenzo[d]thiazol-2-yl)urea] |  | 0.7 |  |
| CC(C)N1CCC2(CC1)CN(c1ccccc1NC(=O)Nc1ccc(OC(F)(F)F)cc1)c1c(O)ccc(-c3nc4cc(Cl)ccc4s3)c12 [Example 143, 1-(2-(4-(5-Chlorobenzo[d]thiazol-2-yl)-7-hydroxy-1′-isopropylspiro[indoline-3,4′-piperidine]-1-yl)phenyl)-3-(4(trifluoromethoxy)phenyl)urea] |  | 0.9 |  |
| CC(C)CN1CCC2(CC1)CN(c1ccccc1NC(=O)Nc1ccc(OC(F)(F)F)cc1)c1c(O)ccc(-c3nc4cc(Cl)ccc4s3)c12 [Example 142, 1-(2-(4-(5-Chlorobenzo[d]thiazol-2-yl)-7-hydroxy-1′-isobutylspiro[indoline-3,4′-piperidine]-1-yl)phenyl)-3-(4-(trifluoromethoxy)phenyl)urea] |  | 0.5 |  |
| CC(C)(C)CN1CCC2(CC1)CN(c1ccccc1NC(=O)Nc1nc3ccc(Cl)cc3s1)c1c(O)cc(F)c(Cl)c12 [Example 94, 1-(2-(4-Chloro-5-fluoro-7-hydroxy-1′-neopentylspiro [indoline-3,4′-piperidine]-1-yl)phenyl)-3-(6-chlorobenzo[d]thiazol-2-yl)urea] |  | 0.7 |  |
| CC(C)CN1CCC2(CC1)CN(c1ccccc1NC(=O)Nc1nc3ccc(Cl)nc3s1)c1c(O)ccc(C(F)(F)F)c12 [Example 171, 1-(5-Chlorothiazolo[5,4-b]pyridin-2-yl)-3-(2-(7-hydroxy-1′-isobutyl-4-(trifluoromethyl)spiro[indoline-3,4′-piperidine]-1-yl)phenyl)urea] |  | 0.3 |  |
| CC(C)(C)CN1CCC2(CC1)CN(c1ccccc1NC(=O)Nc1csc(Cl)n1)c1c(O)ccc(-c3nc4cccc(Cl)c4s3)c12 [Example 122, 1-(2-(4-(7-Chlorobenzo[d]thiazol-2-yl)-7-hydroxy-1′-neopentylspiro[indoline-3,4′-piperidin]-1-yl)phenyl)-3-(2-chlorothiazol-4-yl)urea] |  | 0.4 |  |
| CC(C)c1nsc(NC(=O)Nc2ccccc2N2CC3(CCN(CC(C)(C)C)CC3)c3c(C#N)ccc(O)c32)n1 [Example 88, l-(2-(4-Cyano-7-hydroxy-1′-neopentylspiro[indoline-3,4′-piperidin]-1-yl)phenyl)-3-(3-isopropyl-1,2,4-thiadiazol-5-yl)urea] |  | 0.9 |  |
| CC(C)(C)CN1CCC2(CC1)CN(c1ccccc1NC(=O)Nc1csc(Cl)n1)c1c(O)cc(F)c(-c3ccc(Cl)cc3)c12 [Example 163, 1-(2-(4-(4-Chlorophenyl)-5-fluoro-7-hydroxy-1′-neopentylspiro[indoline-3,4′-piperidin]-1-yl)phenyl)-3-(2-chlorothiazol-4-yl)urea] |  | 0.1 |  |
| CC(C)(C)CN1CCC2(CC1)CN(c1ccccc1NC(=O)Nc1nc3ccc(F)cc3s1)c1c(O)ccc(-c3nc4cc(Cl)ccc4s3)c12 [Example 133, 1-(2-(4-(5-Chlorobenzo[d]thiazol-2-yl)-7-hydroxy-1′-neopentylspiro[indoline-3,4′-piperidin]-1-yl)phenyl)-3-(6-fluorobenzo[d]thiazol-2-yl)urea] |  | 0.3 |  |
| CC(C)(C)CN1CCC2(CC1)CN(c1ccccc1NC(=O)Nc1csc(Cl)n1)c1c(O)cc(F)c(Cl)c12 [Example 103, 1-(2-(4-Chloro-5-fluoro-7-hydroxy-1′-neopentylspiro [indoline-3,4′-piperidin]-1-yl)phenyl)-3-(2-chlorothiazol-4-yl)urea] |  | 0.3 |  |
| CC(C)(C)CN1CCC2(CC1)CN(c1ccccc1NC(=O)Nc1ccc(OC(F)(F)F)cc1)c1c(O)ccc(-c3nc4cc(Cl)ccc4s3)c12 [Example 134, 1-(2-(4-(5-Chlorobenzo[d]thiazol-2-yl)-7-hydroxy-1′-neopentylspiro[indoline-3,4′-piperidin]-1-yl)phenyl)-3-(4-(trifluoromethoxy)phenyl)urea] |  | 0.4 |  |
| CC(C)(C)CN1CCC2(CC1)CN(c1ccccc1NC(=O)Nc1nc3ccc(Cl)nc3s1)c1c(O)ccc(-c3nc4cc(C(F)(F)F)ccc4s3)c12 [Example 109, 1-(5-Chlorothiazolo[5,4-b]pyridin-2-yl)-3-(2-(7-hydroxy-1′-neopentyl-4-(5-(trifluoromethyl)benzo[d]thiazol-2-yl)spiro[indoline-3,4′-piperidin]-1-yl)phenyl)urea] |  | 0.4 |  |
| COc1ccc2nc(NC(=O)Nc3ccccc3N3CC4(CCN(CC(C)(C)C)CC4)c4c(C#N)ccc(O)c43)sc2c1 [Example 86, l-(2-(4-Cyano-7-hydroxy-1′-neopentylspiro[indoline-3,4′-piperidin]-1-yl)phenyl)-3-(6-methoxybenzo[d]thiazol-2-yl)urea] |  | 0.8 |  |
| CC(C)(C)CN1CCC2(CC1)CN(c1ccccc1NC(=O)Nc1nc3ccc(F)nc3s1)c1c(O)ccc(C#N)c12 [Example 180, 1-(2-(4-Cyano-7-hydroxy-1′-neopentylspiro[indoline-3,4′-piperidine]-1-yl)phenyl)-3-(5-fluorothiazolo[5,4-b]pyridin-2-yl)urea] |  | 0.9 |  |
| CC(C)(C)CN1CCC2(CC1)CN(c1ccccc1NC(=O)Nc1nc3ccc(Cl)cc3s1)c1c(O)ccc(-c3nc4cc(F)ccc4s3)c12 [Example 127, 1-(6-Chlorobenzo[d]thiazol-2-yl)-3-(2-(4-(5-fluorobenzo[d]thiazol-2-yl)-7-hydroxy-1′-neopentylspiro[indoline-3,4′-piperidin]-1-yl)phenyl)urea] |  | 0.5 |  |
| CC(C)(C)CN1CCC2(CC1)CN(c1ccccc1NC(=O)Nc1nc3ccc(F)cc3s1)c1c(O)ccc(-c3nc4ccc(F)cc4s3)c12 [Example 148, 1-(6-Fluorobenzo[d]thiazol-2-yl)-3-(2-(4-(6-fluorobenzo[d]thiazol-2-yl)-7-hydroxy-1′-neopentylspiro[indoline-3,4′-piperidin]-1-yl)phenyl)urea] |  | 0.3 |  |
| CC(C)(C)CN1CCC2(CC1)CN(c1ccccc1NC(=O)Nc1csc(Cl)n1)c1c(O)ccc(-c3nc4cc(Cl)ccc4s3)c12 [Example 111, 1-(2-(4-(5-Chlorobenzo[d]thiazol-2-yl)-7-hydroxy-1′-neopentylspiro[indoline-3,4′-piperidine]-1-yl)phenyl)-3-(2-chlorothiazol-4-yl)urea] |  | 0.2 |  |
| CC(C)(C)CN1CCC2(CC1)CN(c1ccccc1NC(=O)Nc1nc3ccc(Cl)nc3s1)c1c(O)ccc(-c3nc4cc(Cl)ccc4s3)c12 [Example 110, 1-(2-(4-(5-Chlorobenzo[d]thiazol-2-yl)-7-hydroxy-1′-neopentylspiro[indoline-3,4′-piperidin]-1-yl)phenyl)-3-(5-chlorothiazolo[5,4-b]pyridin-2-yl)urea] |  | 0.5 |  |
| CC(C)(C)CN1CCC2(CC1)CN(c1ccccc1NC(=O)Nc1ccc(OC(F)(F)F)cc1)c1c(O)ccc(-c3nc4ccc(Cl)cc4s3)c12 [Example 136, 1-(2-(4-(6-Chlorobenzo[d]thiazol-2-yl)-7-hydroxy-1′-neopentylspiro[indoline-3,4′-piperidin]-1-yl)phenyl)-3-(4-(trifluoromethoxy)phenyl)urea] |  | 0.5 |  |
| COc1ccc2nc(NC(=O)Nc3ccccc3N3CC4(CCN(CC(C)(C)C)CC4)c4c(C#N)ccc(O)c43)sc2n1 [Example 177, 1-(2-(4-Cyano-7-hydroxy-1′-neopentylspiro[indoline-3,4′-piperidine]-1-yl)phenyl)-3-(5-methoxythiazolo[5,4-b]pyridin-2-yl)urea] |  | 0.7 |  |
| CC(C)(C)CN1CCC2(CC1)CN(c1ccccc1NC(=O)Nc1ccc(OC(F)(F)F)cc1)c1c(O)cc(F)c(-c3nc4ccc(F)cc4s3)c12 [Example 151, 1-(2-(5-Fluoro-4-(6-fluorobenzo[d]thiazol-2-yl)-7-hydroxy-1′-neopentylspiro[indoline-3,4′-piperidin]-1-yl)phenyl)-3-(4-(trifluoromethoxy)phenyl)urea] |  |  | 0.3 |
